Values of other authors as cited in publication PMC12007089, “Applying Isothermal Titration Calorimetry and Saturation Transfer Difference-NMR to Study the Mode of Interaction of Flavan-3-ols with α-Amylase to Understand Their Impact on Starch Hydrolysis” (Journal of Agricultural and Food Chemistry, 2025).

Experiments:
α-amylase [1] = test system: α-amylase; set-up: method as in PMID 21495725; details: cited from earlier work
α-amylase [2] = test system: α-amylase; set-up: method as in PMID 27132823; details: cited from earlier work

Oc1cc(O)c2c(c1)O[C@H](c1ccc(O)c(O)c1)[C@H](O)C2 [EC, (−)-Epicatechin]
reduction / decrease in α-amylase activity (α-amylase [1]): 10% | inhibition of α-amylase compared to other phenolic compounds and the apple extract (α-amylase [2]): weakest inhibition
